# Values joined by “and” are separate entries in the source; they are usually repeats but may differ in a detail not shown here. Equal values may be shown once. “Also recorded” adds a separate entry of the source. Read-outs that look alike come from different tables or passages of the source.
# Key:
# [1] = tested on: spleen lymphocytes; experiment: Lymphocyte stimulation assay after in vivo treatment, C57BL/6 mice; settings: for effect on mitogen response (in words): PHA and Con-A
# Protocol: (§1) The purpose of this assay is to challenge lymphocytes in microcultures with one or more polyclonal mitogens at concentrations that will induce mitogenesis within 72 hours of stimulation.
# (§2) In the mouse model, spleens are removed from different strains of mice and the spleen cells are teased free and suspended in RPMI-1640 tissue culture medium at a concentration of usually […]. These cells are dispensed at a concentration of 5.0×10^5 cells per microculture well in a 96 well flat bottom 96 well tissue culture plate. All testing of the compounds of this invention or mitogens are done in replicates of 10. The cells are then treated with PHA, Con-A, specific antigens, or buffer only. If in vitro testing is done, varying concentrations of the compounds of this invention or buffer only are added to the cells as well. After treatment with the mitogens and/or compounds of this invention, the cells are incubated for 72 hours. The response of these cells to mitogens and/or the compounds of this invention is assessed using ^14 C-thymidine labeling on the fourth day at a concentration of 0.01 μCi/well. The labeled cells are harvested using a lymphocyte harvestor and placed onto fibrous paper discs. A scintillation cocktail is added to vials containing the discs and the results are obtained using a LKB-liquid scintillation counter (Model 1216/Rackbeta II). The data is expressed as a ratio of the cpm of the mitogen stimulated group to the control (nonmitogen) treated group=lymphocyte stimulation index (LSI).
# (§3) The lymphocyte stimulation assay may be performed directly on spleen cells obtained from various strains of mice not treated with the compounds of this invention or on lymphocytes obtained from human […]. […] Alternatively, the mice may be treated in vivo with the compounds of this invention by intraperitoneal multi-dose schedules, followed by sacrifice and harvesting spleen lymphocytes. These cells are then tested for their response to polyclonal mitogens or specific antigens used to immunize the mice. In this system however, no additional compound is added to the in vitro lymphocyte stimulation assay system.
# (§4) Two strains of mice, C57BL/6 and BDF1 are treated for seven days with i.p. administration of either 25, 50, 100, 200, or 400 mg/kg of Cpd. 1 or just buffer. This is followed on the eighth day by a lymphocyte stimulation assay.
# A comparison is made of the lymphocyte response of C57BL/6 mice treated 4 days with i.p. administration of either 50, 100, 200, 400 or 800 mg/kg of Cpd. 1, 50, 100, 200, 400 or 800 mg/kg of ascorbic acid (AA), or just buffer. This is followed on the fifth day by a lymphocyte stimulation assay.
# (§5) Two strains of mice, C57BL/6 and BALB/c, are treated 4 days with i.p. administration of either 50, 100, 200, or 400 mg/kg of Cpd. 1, or just buffer. This is followed on the fifth day by a lymphocyte stimulation assay.
# C57BL/6 mice were treated with four daily i.p. doses of either 50, 100, 200, or 400 mg/kg of Cpd. 1 or just buffer. On the fifth day a lymphocyte stimulation assay was performed.
# Mice of the C57BL/6 strain were tested with i.p. administration of either 100, 200, 400 or 600 mg/kg of Cpd. 1 or just buffer. This was followed by removal of spleens and treatment of lymphocytes therein with mitogens PHA and Con-A.
# The compound of Example 2, Cpd. 2, was tested in vivo by using C57BL/6 mice and treating them with […] or just buffer for four consecutive days by the i.p. route. On the fifth day a lymphocyte stimulation assay was performed.
# [2] = tested on: spleen lymphocytes; settings: for Lymphocyte Stimulation Index, Control (no mitogen): 100 mg/kg i.p.; for effect on mitogen response (in words): 100 mg/kg
# Protocol: as §1, §2, §3
# Three month old mice of the SJL/J strain, which are T-cell deficient, are treated with i.p. administration of 100, 200, or 400 mg/kg of Cpd. 1 or just buffer for four days. This is followed by a lymphocyte stimulation assay.
# An in vivo lymphocyte stimulation assay was performed on SJL/J mice of different ages, either 2, 5, or 10 months. The mice received i.p. injections of either 100 mg/kg of Cpd. 1 or just buffer.
# [3] = tested on: spleen lymphocytes; settings: 7 days
# Protocol: as §1, §2, §3, §4
# [4] = tested on: spleen lymphocytes; settings: 4 days
# Protocol: as §1, §2, §3, §5
# [5] = 100 mg/kg i.p., five day administration
# [6] = 200 mg/kg i.p., five day administration
# [7] = 400 mg/kg i.p., five day administration
# [8] = 600 mg/kg i.p., five day administration
smiles,measurement,setting,value
"Cc1ccc(C2(O)C(=O)OC3C(O)COC32O)o1.Cc1ccc(C2(O)C(=O)OC3C(O)COC32O)o1.O=C1CCC(=O)O1 (centres unmarked) [Cpd. 1, 2-furylbutyrolactone:succinic anhydride]","Lymphocyte Stimulation Index, PHA","[1]; 50 mg/kg i.p., 4 days",13.6 and 17.0
same,"Lymphocyte Stimulation Index, Con-A","[1]; 50 mg/kg i.p., 7 days",26.0
same,"Lymphocyte Stimulation Index, Control (no mitogen)","[1]; 50 mg/kg i.p., 7 days",1.0
same,"Lymphocyte Stimulation Index, Con-A","[1]; 100 mg/kg i.p., 7 days",40.0
same,"Lymphocyte Stimulation Index, Control (no mitogen)","[1]; 100 mg/kg i.p., 7 days",1.3
same,"Lymphocyte Stimulation Index, PHA","[1]; 100 mg/kg i.p., 7 days",17.7
same,"Lymphocyte Stimulation Index, Con-A",[1]; [5],43.9
same,"Lymphocyte Stimulation Index, Control (no mitogen)",[1]; [5],.80
same,"Lymphocyte Stimulation Index, PHA",[1]; [5],51.1
same,"Lymphocyte Stimulation Index, PHA","[1]; 200 mg/kg i.p., 4 days",42.8 and 25.2 and 23.2
same,"Lymphocyte Stimulation Index, Con-A","[1]; 200 mg/kg i.p., 7 days",34.0
same,"Lymphocyte Stimulation Index, Control (no mitogen)","[1]; 200 mg/kg i.p., 7 days",1.0
same,"Lymphocyte Stimulation Index, PHA","[1]; 200 mg/kg i.p., 7 days",21.3
same,"Lymphocyte Stimulation Index, Con-A",[1]; [6],36.6
same,"Lymphocyte Stimulation Index, Control (no mitogen)",[1]; [6],.62
same,"Lymphocyte Stimulation Index, PHA",[1]; [6],48.2
same,"Lymphocyte Stimulation Index, Con-A","[1]; 400 mg/kg i.p., 4 days",40.0 and 30.9 and 26.4
same,"Lymphocyte Stimulation Index, Con-A","[1]; 400 mg/kg i.p., 7 days",20.7
same,"Lymphocyte Stimulation Index, Control (no mitogen)","[1]; 400 mg/kg i.p., 7 days",1.0
same,"Lymphocyte Stimulation Index, PHA","[1]; 400 mg/kg i.p., 7 days",3.2
same,"Lymphocyte Stimulation Index, Con-A",[1]; [7],42.4
same,"Lymphocyte Stimulation Index, Control (no mitogen)",[1]; [7],.49
same,"Lymphocyte Stimulation Index, PHA",[1]; [7],44.9
same,"Lymphocyte Stimulation Index, Con-A",[1]; [8],26.5
same,"Lymphocyte Stimulation Index, Control (no mitogen)",[1]; [8],1.7
same,"Lymphocyte Stimulation Index, PHA",[1]; [8],17.6
same,evidence of toxicity,"[1]; 600 mg/kg, five day administration",no evidence of toxicity
same,"Lymphocyte Stimulation Index, Con-A","[1]; 800 mg/kg i.p., 4 days",.612
same,"Lymphocyte Stimulation Index, Control (no mitogen)","[1]; 800 mg/kg i.p., 4 days",.31
same,"Lymphocyte Stimulation Index, PHA","[1]; 800 mg/kg i.p., 4 days",.408
same,effect on Con-A response (in words),"[1]; i.p., 4 days, Con-A",doses ranging from 50 to 200 mg/kg have a significant stimulatory effect; also recorded: doses ranging from 400 to 800 mg/kg have a significant anti-proliferative effect
same,effect on PHA response (in words),"[1]; i.p., 4 days, PHA",doses of 100 and 200 mg/kg of Cpd. 1 tend to stimulate lymphocyte DNA synthesis; also recorded: Doses ranging from 400 to 800 suppress DNA synthesis of spleen lymphocytes; also recorded: a decrease in the response to PHA at the 400 mg/kg dose when compared to the response at the 200 mg/kg dose
same,effect on mitogen response (in words),"[1]; i.p., 7 days","strong suppression of the PHA response in the C57BL/6 mice; also recorded: a suppression of the Con-A response in C57BL/6 mice when compared to the 200 mg/kg dose; also recorded: at a dose of 200 mg/kg in C57BL/6 mice; also recorded: in the C57BL/6 strain, it is increased at doses of 50, 100 and 200 mg/kg"
same,effect on mitogen response (in words),"[1]; i.p., five day administration","Doses ranging from 100 to 400 mg/kg of Cpd. 1 caused significant stimulation of both the Con-A and PHA treated lymphocytes; also recorded: The high dose, 600 mg/kg, caused less stimulation than the 100 to 400 mg/kg doses and gave levels comparable to controls"
same,effect on mitogen response (in words),"[1]; i.p., four daily doses",Stimulation of the response to polyclonal mitogens at doses of Cpd. 1 from 50-400 mg/kg with a maximum response achieved between doses of 100-200 mg/kg
same,"Lymphocyte Stimulation Index, Control (no mitogen)",[2]; age 2 months,2.3
same,"Lymphocyte Stimulation Index, Control (no mitogen)",[2]; age 5 months,1.9
same,"Lymphocyte Stimulation Index, Control (no mitogen)",[2]; age 10 months,2.1
same,effect on mitogen response (in words),[2]; age 2 months,decreased PHA versus increased Con-A response
same,effect on mitogen response (in words),[2]; age 5 months,depressed mitogenesis response to both PHA and Con-A
same,effect on mitogen response (in words),[2]; age 10 months,significant stimulation of both the PHA and Con-A mitogenic response
same,"Lymphocyte Stimulation Index, Con-A","[2]; 400 mg/kg i.p., four days, three month old",3.30
same,"Lymphocyte Stimulation Index, Con-A",[3]; 25 mg/kg i.p.,4.3
same,"Lymphocyte Stimulation Index, Control (buffer, pH 8.05)",[3]; 25 mg/kg i.p.,0.8
same,"Lymphocyte Stimulation Index, PHA",[3]; 25 mg/kg i.p.,13.8
same,"Lymphocyte Stimulation Index, Con-A",[3]; 50 mg/kg i.p.,21.6
same,"Lymphocyte Stimulation Index, Control (buffer, pH 8.05)",[3]; 50 mg/kg i.p.,0.9
same,"Lymphocyte Stimulation Index, PHA",[3]; 50 mg/kg i.p.,52.1
same,"Lymphocyte Stimulation Index, Con-A",[3]; 100 mg/kg i.p.,17.9
same,"Lymphocyte Stimulation Index, Control (buffer, pH 8.05)",[3]; 100 mg/kg i.p.,0.7
same,"Lymphocyte Stimulation Index, PHA",[3]; 100 mg/kg i.p.,48.7
same,"Lymphocyte Stimulation Index, Con-A",[3]; 200 mg/kg i.p.,2.9
same,"Lymphocyte Stimulation Index, Control (buffer, pH 8.05)",[3]; 200 mg/kg i.p.,0.8
same,"Lymphocyte Stimulation Index, PHA",[3]; 200 mg/kg i.p.,7.8
same,"Lymphocyte Stimulation Index, Con-A",[3]; 400 mg/kg i.p.,0.9
same,"Lymphocyte Stimulation Index, Control (buffer, pH 8.05)",[3]; 400 mg/kg i.p.,0.9
same,"Lymphocyte Stimulation Index, PHA",[3]; 400 mg/kg i.p.,1.1
same,"Lymphocyte Stimulation Index, Con-A",[4]; 50 mg/kg i.p.,20.5
same,"Lymphocyte Stimulation Index, Control (no mitogen)",[4]; 50 mg/kg i.p.,1.4
same,"Lymphocyte Stimulation Index, PHA",[4]; 50 mg/kg i.p.,6.44
same,"Lymphocyte Stimulation Index, Con-A",[4]; 100 mg/kg i.p.,21.8
same,"Lymphocyte Stimulation Index, Control (no mitogen)",[4]; 100 mg/kg i.p.,1.0
same,"Lymphocyte Stimulation Index, PHA",[4]; 100 mg/kg i.p.,5.24
same,"Lymphocyte Stimulation Index, Con-A",[4]; 200 mg/kg i.p.,20.5
same,"Lymphocyte Stimulation Index, Control (no mitogen)",[4]; 200 mg/kg i.p.,.76
same,"Lymphocyte Stimulation Index, Con-A",[4]; 400 mg/kg i.p.,18.7
same,"Lymphocyte Stimulation Index, Control (no mitogen)",[4]; 400 mg/kg i.p.,.90
same,"Lymphocyte Stimulation Index, PHA",[4]; 400 mg/kg i.p.,6.71
